Results published in patent EP2792359A1, “Treatment of L-DOPA-induced dyskinesia with OPC-14523 or OPC-34712” (Merz Pharma GmbH & Co. KGaA, priority 2013, dated 2014).

Experiments:
[1] = test system: 6-OHDA-lesioned rats; assay: L-DOPA induced dyskinesia (AIM scores) in the 6-OHDA-lesioned rat model of Parkinson's disease; assay type: in vivo, Sprague Dawley rats; details: for reduction of LID: comparators, data not shown, dose not given
[2] = target: Muscarinic acetylcholine receptors M3 (Homo sapiens, UniProt P20309); details: cited from earlier work
Chain of Muscarinic acetylcholine receptors M3 (P20309 whole entry): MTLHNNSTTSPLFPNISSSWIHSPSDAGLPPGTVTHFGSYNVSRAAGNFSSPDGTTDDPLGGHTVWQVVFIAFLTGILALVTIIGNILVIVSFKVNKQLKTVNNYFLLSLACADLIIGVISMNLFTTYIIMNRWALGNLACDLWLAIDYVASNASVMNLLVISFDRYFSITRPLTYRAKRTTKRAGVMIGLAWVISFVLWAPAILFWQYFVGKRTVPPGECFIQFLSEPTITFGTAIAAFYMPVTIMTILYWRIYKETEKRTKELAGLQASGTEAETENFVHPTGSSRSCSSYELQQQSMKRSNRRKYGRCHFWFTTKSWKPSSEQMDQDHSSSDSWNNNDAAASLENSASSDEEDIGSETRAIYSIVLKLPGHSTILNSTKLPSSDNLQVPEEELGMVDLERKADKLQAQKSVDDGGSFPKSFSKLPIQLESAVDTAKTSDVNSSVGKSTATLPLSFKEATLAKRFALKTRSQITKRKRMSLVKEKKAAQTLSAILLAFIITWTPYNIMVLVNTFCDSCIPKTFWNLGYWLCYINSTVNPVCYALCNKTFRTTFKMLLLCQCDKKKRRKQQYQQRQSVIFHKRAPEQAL

[3] = test system: NMDA receptor; details: cited from earlier work
[4] = target: T1, MAO-A (Homo sapiens, UniProt P21397); details: cited from earlier work
T1 sequence (P21397 1-527): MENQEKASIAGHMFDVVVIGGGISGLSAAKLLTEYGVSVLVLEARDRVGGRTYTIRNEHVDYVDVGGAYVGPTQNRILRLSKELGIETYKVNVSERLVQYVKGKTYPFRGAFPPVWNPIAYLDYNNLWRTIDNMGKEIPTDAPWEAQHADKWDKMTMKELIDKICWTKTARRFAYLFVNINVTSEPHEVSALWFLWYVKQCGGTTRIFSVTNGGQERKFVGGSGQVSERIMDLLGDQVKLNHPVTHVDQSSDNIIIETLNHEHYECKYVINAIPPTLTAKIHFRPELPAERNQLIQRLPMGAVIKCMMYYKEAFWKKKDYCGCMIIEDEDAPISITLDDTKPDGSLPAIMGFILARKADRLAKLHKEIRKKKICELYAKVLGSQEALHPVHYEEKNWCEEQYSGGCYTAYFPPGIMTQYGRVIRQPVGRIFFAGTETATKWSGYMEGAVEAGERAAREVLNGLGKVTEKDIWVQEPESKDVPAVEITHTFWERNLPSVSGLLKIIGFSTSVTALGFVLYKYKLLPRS

[5] = cited from earlier work
[6] = target: T2, Muscarinic acetylcholine receptors M2 (Homo sapiens, UniProt P08172); details: cited from earlier work
T2 sequence (P08172 1-466): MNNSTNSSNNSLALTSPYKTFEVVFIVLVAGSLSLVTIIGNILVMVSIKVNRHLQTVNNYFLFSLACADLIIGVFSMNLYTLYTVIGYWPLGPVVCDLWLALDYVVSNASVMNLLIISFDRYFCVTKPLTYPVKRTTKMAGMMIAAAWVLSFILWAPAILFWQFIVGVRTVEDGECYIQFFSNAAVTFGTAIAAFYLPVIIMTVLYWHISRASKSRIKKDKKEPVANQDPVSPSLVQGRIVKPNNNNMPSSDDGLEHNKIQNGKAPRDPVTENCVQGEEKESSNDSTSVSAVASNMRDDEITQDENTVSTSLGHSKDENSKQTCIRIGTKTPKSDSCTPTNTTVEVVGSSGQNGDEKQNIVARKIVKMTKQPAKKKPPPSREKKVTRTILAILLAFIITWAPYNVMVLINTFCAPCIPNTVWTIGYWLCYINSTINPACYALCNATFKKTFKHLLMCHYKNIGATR

[7] = target: T3, Muscarinic acetylcholine receptors M1 (Homo sapiens, UniProt P11229); details: cited from earlier work
T3 sequence (P11229 1-460): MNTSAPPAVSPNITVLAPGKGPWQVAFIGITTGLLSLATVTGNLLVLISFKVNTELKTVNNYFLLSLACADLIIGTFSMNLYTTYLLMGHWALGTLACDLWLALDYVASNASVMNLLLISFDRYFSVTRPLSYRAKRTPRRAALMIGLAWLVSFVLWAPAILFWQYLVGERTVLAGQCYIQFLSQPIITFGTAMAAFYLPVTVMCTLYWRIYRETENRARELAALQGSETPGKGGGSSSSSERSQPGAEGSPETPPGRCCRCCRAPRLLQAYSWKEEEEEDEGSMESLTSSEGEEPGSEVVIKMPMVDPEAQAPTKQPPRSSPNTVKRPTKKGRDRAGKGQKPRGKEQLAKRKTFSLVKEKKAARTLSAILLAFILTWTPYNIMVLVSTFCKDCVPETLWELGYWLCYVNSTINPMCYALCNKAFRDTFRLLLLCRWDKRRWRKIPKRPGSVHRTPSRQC

[8] = target: T4, 5-HT2B (Homo sapiens, UniProt P41595); assay: 5-HT2B IP-One HTRF assay (Euroscreen FAST-0506I); assay type: cell-based
T4 construct: host or cells: CHO-K1
T4 sequence (P41595 whole entry): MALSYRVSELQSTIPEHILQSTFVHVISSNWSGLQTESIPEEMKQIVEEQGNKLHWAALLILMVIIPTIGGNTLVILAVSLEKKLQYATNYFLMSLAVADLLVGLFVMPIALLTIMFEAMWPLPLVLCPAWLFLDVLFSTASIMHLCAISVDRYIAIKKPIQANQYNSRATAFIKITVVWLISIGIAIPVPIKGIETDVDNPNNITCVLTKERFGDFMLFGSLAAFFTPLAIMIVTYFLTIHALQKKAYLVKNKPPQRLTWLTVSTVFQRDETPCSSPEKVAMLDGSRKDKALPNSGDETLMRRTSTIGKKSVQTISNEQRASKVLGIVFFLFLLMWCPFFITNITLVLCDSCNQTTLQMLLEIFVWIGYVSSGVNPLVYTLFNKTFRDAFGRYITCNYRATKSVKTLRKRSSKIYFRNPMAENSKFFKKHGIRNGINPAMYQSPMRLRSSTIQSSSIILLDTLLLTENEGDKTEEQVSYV
Experimental: B. 5-HT2B assay (performed at Euroscreen, order no.: FAST-0506I):
The 5-HT2B [00136] IP-One HTRF assay was conducted with recombinant cell lines, receptor accession numbers, cellular background and reference compounds are shown in Table 1.
Cells expressing human recombinant 5-HT2B (FAST-506I) grown to mid-log phase in culture media without antibiotics will be detached with PBS-EDTA, centrifuged and resuspended in medium without antibiotics buffer. 20,000 cells will be distributed in a 96 well plate and incubated overnight at 37°C with 5% CO2.
For agonist testing, the medium will be removed and 20 µl of assay buffer plus 20 µl of test compound or reference agonist will be added in each well. The plate will be incubated for 60 min at 37°C with 5% CO2.
For antagonist testing, 20 µl of test compound or reference antagonist is added and the plate is incubated for 15 min. at 37°C in a humidified atmosphere of 95% air with 5% CO2, then 20 µl of reference agonist at a final concentration corresponding to the historical EC80 is added. […]
IP1-D2 reagent and anti-IP1 cryptate reagents will be then dispensed in the wells and DeltaF percentage values will be then calculated following the manufacturer (CisBio) recommendations. […]
(§1) Dose-response data from test compounds were analyzed with XLfit (IDBS) software using nonlinear regression applied to a sigmoidal dose-response model (4 Parameter Fit).

[9] = target: T5, MAO-B (Homo sapiens, UniProt P27338); details: cited from earlier work
T5 sequence (P27338 1-520): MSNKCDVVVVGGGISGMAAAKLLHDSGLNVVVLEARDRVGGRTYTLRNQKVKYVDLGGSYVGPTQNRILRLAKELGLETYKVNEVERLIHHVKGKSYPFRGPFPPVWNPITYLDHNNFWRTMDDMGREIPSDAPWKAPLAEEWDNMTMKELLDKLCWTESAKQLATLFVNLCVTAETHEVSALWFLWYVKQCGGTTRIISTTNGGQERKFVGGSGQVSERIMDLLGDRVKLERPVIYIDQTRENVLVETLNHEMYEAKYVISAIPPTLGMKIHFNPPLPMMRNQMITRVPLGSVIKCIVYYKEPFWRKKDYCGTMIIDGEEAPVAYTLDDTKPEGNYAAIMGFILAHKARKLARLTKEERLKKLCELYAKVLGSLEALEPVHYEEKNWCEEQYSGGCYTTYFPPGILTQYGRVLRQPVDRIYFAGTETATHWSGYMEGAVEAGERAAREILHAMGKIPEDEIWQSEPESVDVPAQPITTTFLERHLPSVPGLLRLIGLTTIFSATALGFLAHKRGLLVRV

[10] = target: T6, 5-HT1A (Homo sapiens, UniProt P08908); assay: 5-HT1A cAMP HTRF assay (agonist test, Euroscreen FAST-0500C); assay type: cell-based
T6 construct: host or cells: CHO-K1
T6 sequence (P08908 1-422): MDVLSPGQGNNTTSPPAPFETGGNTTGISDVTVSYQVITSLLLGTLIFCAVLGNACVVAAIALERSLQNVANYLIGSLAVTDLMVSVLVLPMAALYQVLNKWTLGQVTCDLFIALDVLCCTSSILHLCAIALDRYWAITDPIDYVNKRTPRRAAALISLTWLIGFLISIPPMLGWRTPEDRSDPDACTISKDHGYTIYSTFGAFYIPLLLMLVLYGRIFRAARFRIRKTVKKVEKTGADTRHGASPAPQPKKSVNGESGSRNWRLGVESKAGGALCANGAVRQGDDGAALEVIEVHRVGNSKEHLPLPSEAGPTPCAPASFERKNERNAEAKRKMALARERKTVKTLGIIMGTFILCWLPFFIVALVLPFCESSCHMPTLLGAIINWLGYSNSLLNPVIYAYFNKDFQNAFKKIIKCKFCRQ
Experimental: (§2) A. In vitro 5-HT1A/B Activity Measurements: 5-HT1A/B cAMP HTRF assay (performed at Euroscreen, order no.: 5-HT1A:FAST-0500C, 5-HT1B: FAST-0501 C)
(§3) CHO-K1 cells expressing each human recombinant receptor (see Table 1) grown prior to the test in media without antibiotic were detached by gentle flushing with PBS-EDTA, recovered by centrifugation and resuspended in assay buffer. Dose response curves are performed in parallel with the reference compounds.
(§4) For agonist tests (96well): 12 µl of cells were mixed with 6 µl of the test compound at increasing concentrations and 6 µl of forskolin then incubated 30 min at room temperature. After addition of the lysis buffer and 1 hour incubation, cAMP concentrations were estimated, according to the manufacturer specification, with the HTRF kit (Cisbio).
Assay buffer consisted of: 5 mM KCI, 1.25 mM MgSO4, 124 mM NaCl, 25 mM HEPES, 13.3 mM Glucose, 1.25 mM KH2PO4, 1.45 mM CaCl2, and 0.5 g/I BSA. PBS-EDTA contained 137 mM NaCl, 2.7 mM KCI, 10 mM Na2HPO4, 2 mM KH2PO4 and 5 mM EDTA. […]
as §1
(§5) Agonist activity of test compounds is expressed as a percentage of the activity of the reference agonist at a saturating concentration.

[11] = target: T7, 5-HT1B (Homo sapiens, UniProt P28222); assay: 5-HT1B cAMP HTRF assay (agonist test, Euroscreen FAST-0501C); assay type: cell-based
T7 construct: host or cells: CHO-K1
T7 sequence (P28222 whole entry): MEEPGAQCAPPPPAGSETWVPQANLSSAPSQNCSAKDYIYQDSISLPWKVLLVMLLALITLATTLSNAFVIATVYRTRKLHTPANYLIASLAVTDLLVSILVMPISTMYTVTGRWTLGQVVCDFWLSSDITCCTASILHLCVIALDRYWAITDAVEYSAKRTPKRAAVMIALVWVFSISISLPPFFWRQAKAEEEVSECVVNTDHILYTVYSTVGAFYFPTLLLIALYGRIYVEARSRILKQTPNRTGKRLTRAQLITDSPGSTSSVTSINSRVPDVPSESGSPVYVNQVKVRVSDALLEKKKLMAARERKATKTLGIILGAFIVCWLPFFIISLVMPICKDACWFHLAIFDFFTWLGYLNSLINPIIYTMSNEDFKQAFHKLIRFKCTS
Experimental: as §2, §3, §4
Assay buffer consisted of: 5 mM KCI, 1.25 mM MgSO4, 124 mM NaCl, 25 mM HEPES, 13.3 mM Glucose, 1.25 mM KH2PO4, 1.45 mM CaCl2, and 0.5 g/I BSA. PBS-EDTA contained 137 mM NaCl, 2.7 mM KCI, 10 mM Na2HPO4, 2 mM KH2PO4 and 5 mM EDTA. Cell lines used were derived from CHO-K1 stably expressing the human receptors needed for the pharmacological testing (see Table 1). 5-Carboxamidotryptamine (5-CT) was used as reference agonist.
On each day of experimentation, reference compounds were tested at several concentrations in duplicate (n=2) to obtain a dose-response curve and an estimated EC50 value.
Reference values thus obtained for the test were compared to historical values obtained from the same receptor and used to validate the experimental session. […] For replicate determinations, the maximum variability tolerated in the test was of +/-20% around the average of the replicates.
as §1, §5

| SMILES | reduction of LID [1] | activity at Muscarinic acetylcholine receptor M3 [2] | activity at NMDA receptor [3] | activity at MAO-A [4] | adverse events in Phase 1 studies [5] | activity at Muscarinic acetylcholine receptor M2 [6] | activity at Muscarinic acetylcholine receptor M1 [7] | IC50 [8] | activity at MAO-B [9] | EC50 [10] | Emax ([10]; 0.5 h, CHO-K1 cells, human recombinant receptor, percentage of the activity of reference agonist 5-CT at saturating concentration, read-out: partial agonism, efficacy at 5-HT1A) | Emax ([11]; 0.5 h, CHO-K1 cells, human recombinant receptor, percentage of the activity of reference agonist 5-CT at saturating concentration, read-out: partial agonism, efficacy at 5-HT1B) | EC50 ([11]; CHO-K1 cells, human recombinant receptor, cAMP with forskolin, read-out: partial agonism at 5-HT1B (potency)) | action at the 5-HT1B receptor ([11]; human recombinant cell lines) | effect on LID (AIM scores) ([1]; 10 mg/kg p.o., 10 min before L-DOPA/benserazide 6/15 mg/kg i.p.) |
| --- | --- | --- | --- | --- | --- | --- | --- | --- | --- | --- | --- | --- | --- | --- | --- |
| NC12CC3CC(CC(C3)C1)C2 [Amantadine] | -25% | – | – | – | – | – | – | – | – | – | – | – | – | – | – |
| c1cc2c(c(N3CCNCC3)c1)OCCO2 [Eltoprazine] | -60% | – | – | – | – | – | – | – | – | – | – | – | – | – | – |
| COc1cccc2c1CCC(=O)N2CCCN1CCN(c2cccc(Cl)c2)CC1 [OPC-14523, 1-[3-[4-(3-Chlorophenyl)piperazin-1-yl]propyl]-5-methoxy-1,2,3,4-tetrahydroquinolin-2-one] | – | inactive | inactive | inactive | no adverse events | inactive | inactive | 160 nM | inactive | 26 nM | ~60% | ~60% | 7 nM | partial agonist | strongly reduced LID |
